Tests used:
[1] = test system: human myeloid leukemia K-562; test: In vitro cytotoxicity, Calcein AM assay, K-562; type: cell-based; conditions: Homo sapiens, K562, 72 hours
Excerpt: (§1) Low cytotoxicity of the compounds is the major property determining the cosmetic use. One of the parameters used, as the basis for cytotoxicity assays, is the metabolic activity of viable cells. For example, a microtiter assay, which uses the Calcein AM, is now widely used to quantitate cell proliferation and cytotoxicity. For instance, this assay is used in drug screening programs and in chemosensitivity testing. Because only metabolically active cells cleave Calcein AM, these assays detect viable cells exclusively. The quantity of […] Calcein AM corresponds to the number of vital cells in the culture.
(§2) Human T-lymphoblastic leukemia cell line CEM; promyelocytic HL-60 and monocytic U937 leukemias; breast carcinoma cell lines MCF-7, BT549, MDA-MB-231; glioblastoma U87MG cells; cervical carcinoma cells HELA; sarcoma cells U2OS and Saos2; hepatocellular carcinoma HepG2; mouse fibroblasts NIH3T3; mouse immortalized bone marrow macrophages B2.4 and B10A.4; P388D1 and L1210 leukemia; B16 and B16F10 melanomas; human osteosarcoma HOS; human myeloid leukemia K-562; human skin melanoma G-361 were used for routine screening of compounds. The cells were maintained in Nunc/Corning 80 cm^2 plastic tissue culture flasks and cultured in cell culture medium (DMEM with 5 g/l glucose, 2 mM glutamine, 100 U/mL penicillin, 100 μg/mL streptomycin, 10% fetal calf serum and sodium bicarbonate).
(§3) The cell suspensions that were prepared and diluted according to the particular cell type and the expected target cell density (2.500-30.000 cells per well based on cell growth characteristics) were added by pipette ([…]) into 96/well microtiter plates. Inoculates were allowed a pre-incubation period of 24 hours at 37° C. and 5% CO2 for stabilisation. Four-fold dilutions of the intended test concentration were added at time zero in 20 μl aliquots to the microtiter plate wells. Usually, the compound tested was evaluated at six 4-fold dilutions. In routine testing, the highest well concentration was 100 μM, but it can be the matter of change dependent on the agent. All drug concentrations were examined in duplicates. Incubations of cells with the tested compounds lasted for 72 hours at 37° C., in 5% CO2 atmosphere and 100% humidity. At the end of the incubation period, the cells were assayed by using Calcein AM. Ten microliters of the stock solution were pipetted into each well and incubated for 1 hour. Fluorescence (FD) was measured with the Labsystem FIA Reader Fluoroscan Ascent (UK). The tumour cell survival (GI50) was calculated using the following equitation: TCS=(FDdrug exposed well/mean FDeontrol wells)×100%. The GI50 value, the drug concentration lethal to 50% of the tumour cells, was calculated from the obtained dose response curves.
(§4) Zero cytotoxicity of the novel compounds is the basic prerequisite for agricultural and tumor-unrelated applications. The cytoxicity of the novel compounds was tested on a panel of cell lines of different histogenetic and species origin (Table 9). We show herein that equal activities were found in all tumour cell lines tested, however, the non-malignant cells, e.g. NIH3T3 fibroblasts and normal human lymphocytes, were resistant to 2,6-disubstituted purine ribosides induced cytotoxicity. The compounds listed in Tab. 9 can be divided into 2 groups. The first group contains “classical cytokinins” represented by 6-substituted purine ribosides (which are known in the prior art). The second group contains the novel 2,6-disubstituted derivatives of these compounds. […] GI50 for NIH3T3 fibroblasts and normal human lymphocytes was always higher than 100 μM. The novel derivatives show no toxicity to normal and tumour cells in concentrations about 100 μM and thus are more suitable for agricultural applications than “classical cytokinins” (6-substituted purine riboside derivatives).

[2] = test system: promyelocytic HL-60 leukemia; test: In vitro cytotoxicity, Calcein AM assay, HL60; type: cell-based, human; conditions: Homo sapiens, HL-60, 72 hours
Excerpt: as §1, §2, §3, §4

[3] = test system: neutrophils; test: Neutrophil IL8 release, ELISA; type: cell-based; conditions: Homo sapiens, primed neutrophils, ELISA (FIG. 3)
Method: (§5) Neutrophils were cultured at 2×10^6 cells/ml in RPMI1640 medium containing human serum antibiotics and 20 ng/ml TNFα for 10 minutes prior to addition of a range of concentrations of compound 10. Release of IL8 was monitored after a 4 h period by ELISA. Data are mean of duplicate measurements representative of 5 separate experiments.
(§6) Anti-inflammatory effects against neutrophils were determined by assessing effects of several of the compounds on neutrophil inflammatory activity (superoxide generation, secretion of chemoattractant IL8 and degranulation to release myeloperoxidase). Neutrophils were isolated from human blood to a purity of greater than 95% and were cultured in RPMI1640 medium containing 2% human AB serum, 2 mM L-glutamine and antibiotics (100 U/ml penicillin, […] streptomycin). Neutrophils were primed for 30 minutes with 50 ng/ml GM-CSF prior to treatment with the bacterial stimulant fMLP (100 ng/ml) and measurement of superoxide generation in a lucigenin based assay (see Pongracz J and Lord J M 1998, Biochem. Biophys. Res. Commun. 247, 624-629) and release of IL8 and myeloperoxidase using an ELISA method. The novel compounds were added to the culture at a range of concentrations (0.1-100 μM) 10 minutes prior to addition of fMLP. […]

[4] = test system: neutrophils; test: Neutrophil degranulation, release of myeloperoxidase, ELISA; type: cell-based; conditions: Homo sapiens, primed neutrophils, ELISA (FIG. 4)
Method: as §5, with “MPO” for “IL8”, “30 minute” for “4 h”
as §6

For `COc1cccc(CNc2nc(Cl)nc3c2ncn3C2OC(CO)C(O)C2O)c1O` (stereo not shown) [Compound 10, 2-Chloro-6-(2-hydroxy-3-methoxybenzylamino)purine riboside], the GI50 [1] was over 100 µM, the GI50 [2] was over 100 µM and the IC50 [3] was 0.05 µM. The IC50 [4] was 4 µM.

— patent publication US20140066394A1, “Substituted 6-(Benzylamino) Purine Riboside Derivatives, Use Thereof and Compositions Containing These Derivatives” (Biopatterns, S.R.O, priority 2009, published 2014)
